Values quoted from earlier work in US6020121A (priority 1996, dated 2000).

System: production of several toxins
Conditions: Agr independent; cited from earlier work

SMILES: CCCCCCCCCCCC(=O)OCC(O)CO (stereo not shown) [GML, Glycerol monolaureate, reference compound]
- production of several toxins: lower the production of several toxins in an Agr independent manner
